Data published in US7012144B2, “Quinolone carboxylic acid derivatives” (Korea Research Institute of Chemical Technology, priority 2001, dated 2006).
In brackets after ≈: the same amount, converted by molar mass. Where two headings read alike, the source gives them in different places.

How the values were obtained:
[1] = tested on: Enterobacter cloacae 1321E; assay: Antibacterial activity in vitro (MIC, two-fold dilution, Muller Hinton agar); format: cell-based; conditions: 10^7 CFU/ml, 37° C., 18 hours
Protocol: (§1) The MIC values were determined employing a two-fold dilution method and Muller Hinton agar medium. Each of the Hoechst 345 standard strains having the concentration of 10^7CFU (colony forming unit)/ml was inoculated onto the medium, and incubated at 37° C. for 18 hours.

Enterobacter cloacae P99 = assay: as above; format: cell-based; conditions: 10^7 CFU/ml, 37° C., 18 hours
Protocol: as §1

Escherchia coli 078 = assay: as above; format: cell-based; conditions: 10^7 CFU/ml, 37° C., 18 hours
Protocol: as §1

Escherchia coli 1507E = assay: as above; format: cell-based; conditions: 10^7 CFU/ml, 37° C., 18 hours
Protocol: as §1

Escherchia coli DC0 = assay: as above; format: cell-based
Protocol: as §1

Escherchia coli DC2 = assay: as above; format: cell-based
Protocol: as §1

Escherchia coli TEM = assay: as above; format: cell-based; conditions: 10^7 CFU/ml, 37° C., 18 hours
Protocol: as §1

Klebsiella oxytoca 1082E = assay: as above; format: cell-based; conditions: 10^7 CFU/ml, 37° C., 18 hours
Protocol: as §1

Klebsiella oxytoca 1522E = assay: as above; format: cell-based; conditions: 10^7 CFU/ml, 37° C., 18 hours
Protocol: as §1

[2] = tested on: Pseudomonas aeruginosa 1592E; assay: as above; format: cell-based; conditions: 10^7 CFU/ml, 37° C., 18 hours
Protocol: as §1

[3] = tested on: Pseudomonas aeruginosa 1771M; assay: as above; format: cell-based
Protocol: as §1

[4] = tested on: Pseudomonas aeruginosa 1771; assay: as above; format: cell-based; conditions: 10^7 CFU/ml, 37° C., 18 hours
Protocol: as §1

[5] = tested on: Pseudomonas aeruginosa 9027; assay: as above; format: cell-based; conditions: 10^7 CFU/ml, 37° C., 18 hours
Protocol: as §1

Salmonella typhymurium = assay: as above; format: cell-based; conditions: 10^7 CFU/ml, 37° C., 18 hours
Protocol: as §1

[6] = tested on: Staphylococcus aureus 285; assay: as above; format: cell-based
Protocol: as §1

[7] = tested on: Staphylococcus aureus 503; assay: as above; format: cell-based; conditions: 10^7 CFU/ml, 37° C., 18 hours
Protocol: as §1

[8] = tested on: Staphylococcus aureus SG 511; assay: as above; format: cell-based; conditions: 37° C., 18 hours
Protocol: as §1

[9] = tested on: Streptococcus faecium MD 8b; assay: as above; format: cell-based; conditions: 10^7 CFU/ml, 37° C., 18 hours
Protocol: as §1

[10] = tested on: Streptococcus pyogenes A 308; assay: as above; format: cell-based; conditions: 37° C., 18 hours
Protocol: as §1

[11] = tested on: Streptococcus pyogenes A 77; assay: as above; format: cell-based
Protocol: as §1

[12] = tested on: calf thymus topoisomerase II; assay: Inhibition of the enzyme activity of topoisomerase II; format: biochemical; conditions: concentration to inhibit the enzyme activity of calf thymus topoisomerase II
Protocol: (§2) Selectivity indexes of the compounds of the present invention and control compounds were measured using gyrase purified from of E. coli and calf thymus topoisomerase II obtained from Topogen. Co.
(§3) The selectivity index (S.I.) was calculated by the equation 1. [formula] wherein, IC100, Topo II is the concentration of a compound to inhibit the enzyme activity of topoisomerase II and IC100, Gyrase is the concentration of a compound to inhibit the enzyme activity of gyrase of E. coli.

gyrase of E. coli = molecular target: T1, gyrase of E. coli (Escherichia coli, UniProt P0AES4+P0AES6); assay: Inhibition of the enzyme activity of gyrase; format: biochemical; conditions: concentration to inhibit the enzyme activity of gyrase of E. coli
T1 construct: gyrase purified from of E. coli; host or cells: E. coli
T1 sequence (P0AES4 whole entry, one chain of several): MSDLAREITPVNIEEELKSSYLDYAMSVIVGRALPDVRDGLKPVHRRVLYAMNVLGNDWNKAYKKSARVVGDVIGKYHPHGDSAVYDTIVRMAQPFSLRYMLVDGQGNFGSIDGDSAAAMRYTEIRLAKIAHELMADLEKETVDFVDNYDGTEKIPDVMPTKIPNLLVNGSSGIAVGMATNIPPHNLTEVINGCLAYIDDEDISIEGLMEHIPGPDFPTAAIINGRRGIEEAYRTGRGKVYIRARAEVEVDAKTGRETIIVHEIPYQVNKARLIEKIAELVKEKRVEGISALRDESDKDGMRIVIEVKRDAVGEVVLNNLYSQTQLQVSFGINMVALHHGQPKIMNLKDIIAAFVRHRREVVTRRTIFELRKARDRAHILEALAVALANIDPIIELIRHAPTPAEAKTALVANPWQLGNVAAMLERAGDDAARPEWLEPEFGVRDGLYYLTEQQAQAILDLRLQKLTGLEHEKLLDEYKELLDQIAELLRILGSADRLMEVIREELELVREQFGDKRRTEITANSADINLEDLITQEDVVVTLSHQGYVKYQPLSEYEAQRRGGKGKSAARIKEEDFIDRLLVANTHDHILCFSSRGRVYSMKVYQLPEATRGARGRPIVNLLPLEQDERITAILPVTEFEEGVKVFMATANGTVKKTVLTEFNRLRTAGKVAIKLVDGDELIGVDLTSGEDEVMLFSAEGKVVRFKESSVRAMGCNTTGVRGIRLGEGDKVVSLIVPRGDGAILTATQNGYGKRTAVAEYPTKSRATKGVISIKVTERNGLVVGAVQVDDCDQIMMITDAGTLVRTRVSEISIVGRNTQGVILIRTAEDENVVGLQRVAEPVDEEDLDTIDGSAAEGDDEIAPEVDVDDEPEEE
Protocol: as §2, §3

[13] = Escherchia coli DC0, 10^7 CFU/ml, 37° C., 18 hours
[14] = Escherchia coli DC2, 10^7 CFU/ml, 37° C., 18 hours
[15] = Pseudomonas aeruginosa 1771M, 10^7 CFU/ml, 37° C., 18 hours
[16] = Staphylococcus aureus 285, 10^7 CFU/ml, 37° C., 18 hours
[17] = Streptococcus pyogenes A 77, 10^7 CFU/ml, 37° C., 18 hours
[18] = Pseudomonas aeruginosa, 1771M, 18 h
[19] = SG511, 10^7 CFU/ml, read-out: MIC
[20] = Enterococcus faecium, MD8B, read-out: MIC
[21] = A308, 10^7 CFU/ml, read-out: MIC

With COc1c(N2CCC(CN)(c3ccccn3)C2)c(F)cc2c(=O)c(C(=O)O)cn(C3CC3)c12 (stereo not shown) [Compound 3, 1-cyclopropyl-6-fluoro-8-methoxy-7-[{3-aminomethyl-3-(pyridin-2-yl)pyrrolidin}-1-yl]-4-oxo-1,4-dihydroquinolin-3-carboxylic acid] the MIC [1] was <0.002 µg/mL, the MIC (Enterobacter cloacae P99) was 0.007 µg/mL (≈ 0.0155 µM) and the MIC (Escherchia coli 078) was <0.002 µg/mL. For the same compound, the MIC (Escherchia coli 1507E) was 0.007 µg/mL (≈ 0.0155 µM), the MIC (Escherchia coli DC0; [13]) was 0.049 µg/mL (≈ 0.108 µM) and the MIC (Escherchia coli DC2; [14]) was 0.013 µg/mL (≈ 0.0287 µM). The MIC (Escherchia coli TEM) was 0.007 µg/mL (≈ 0.0155 µM), the MIC (Klebsiella oxytoca 1082E) was <0.002 µg/mL and the MIC (Klebsiella oxytoca 1522E) was 0.013 µg/mL (≈ 0.0287 µM). For the same compound, the MIC [2] was 0.195 µg/mL (≈ 0.431 µM), the MIC [3, 15] was 0.098 µg/mL (≈ 0.217 µM) and the MIC [4] was 0.098 µg/mL (≈ 0.217 µM). The MIC [5] was 0.195 µg/mL (≈ 0.431 µM), the MIC (Salmonella typhymurium) was 0.007 µg/mL (≈ 0.0155 µM) and the MIC [6, 16] was 0.013 µg/mL (≈ 0.0287 µM). For the same compound, the MIC [7] was 0.007 µg/mL (≈ 0.0155 µM), the MIC ([8]; 10^7 CFU/ml) was 0.007 µg/mL (≈ 0.0155 µM) and the MIC [9] was 0.007 µg/mL (≈ 0.0155 µM). For the same compound, the MIC ([10]; 10^7 CFU/ml) was 0.013 µg/mL (≈ 0.0287 µM), the MIC [11, 17] was 0.007 µg/mL (≈ 0.0155 µM) and the “IC100, Topo II” value [12] was 1,000 μg/ml. For the same compound, the “IC100, Gyrase” value (gyrase of E. coli) was 0.2 µg/mL.
In the case of O=C(O)c1cn(C2CC2)c2cc(N3CCNCC3)c(F)cc2c1=O [Ciprofloxacin, 1-cyclopropyl-6-fluoro-7-(piperazin-1-yl)-4-oxoquinoline-3-carboxylic acid, reference compound], the MIC (Escherchia coli 078; read-out: MIC) is reported as 0.004 µg/mL (≈ 0.0121 µM), the MIC (Escherchia coli 1507E; read-out: MIC) is reported as 0.007 µg/mL (≈ 0.0211 µM) and the MIC (Escherchia coli DC0; 18 h) is reported as 0.195 µg/mL (≈ 0.589 µM). The MIC (Escherchia coli DC2; 18 h) was 0.049 µg/mL (≈ 0.148 µM), the MIC (Escherchia coli TEM; read-out: MIC) was 0.007 µg/mL (≈ 0.0211 µM) and the MIC (Klebsiella oxytoca 1082E; read-out: MIC) was < 0.002 µg/mL. It also gave an MIC (Klebsiella oxytoca 1522E; read-out: MIC) of 0.013 µg/mL (≈ 0.0392 µM), an MIC ([2]; read-out: MIC) of 0.195 µg/mL (≈ 0.589 µM) and an MIC [3, 18] of 0.049 µg/mL (≈ 0.148 µM). It also gave an MIC ([4]; read-out: MIC) of 0.195 µg/mL (≈ 0.589 µM), an MIC ([5]; read-out: MIC) of 0.195 µg/mL (≈ 0.589 µM) and an MIC (Salmonella typhymurium; read-out: MIC) of 0.007 µg/mL (≈ 0.0211 µM). The MIC ([6]; Staphylococcus aureus, 285, 18 h) was 0.781 µg/mL (≈ 2.36 µM), the MIC ([7]; read-out: MIC) was 0.391 µg/mL (≈ 1.18 µM) and the MIC [8, 19] was 0.195 µg/mL (≈ 0.589 µM). The MIC [9, 20] was 0.391 µg/mL (≈ 1.18 µM), the MIC [10, 21] was 3.12 µg/mL (≈ 9.43 µM) and the MIC ([11]; Streptococcus pyogenes, A77, 18 h) was 0.781 µg/mL (≈ 2.36 µM). For the same compound, the “IC100, Topo II” value [12] was 500 µg/mL and the “IC100, Gyrase” value (gyrase of E. coli) was 0.5 µg/mL.
CC1CN(c2c(F)c(N)c3c(=O)c(C(=O)O)cn(C4CC4)c3c2F)CC(C)N1 (stereo not shown) [Sparfloxacin, 1-cyclopropyl-5-amino-6,8-difluoro-7-(3,5-dimethylpiperazin-1-yl)-4-oxoquinoline-3-carboxylic acid, reference compound] gave an MIC ([1]; read-out: MIC) of 0.004 µg/mL (≈ 0.0102 µM), an MIC (Enterobacter cloacae P99; read-out: MIC) of 0.007 µg/mL (≈ 0.0178 µM) and an MIC (Escherchia coli 078; read-out: MIC) of 0.004 µg/mL (≈ 0.0102 µM). The MIC (Escherchia coli 1507E; read-out: MIC) was 0.025 µg/mL (≈ 0.0637 µM), the MIC (Escherchia coli DC0; 18 h) was 0.195 µg/mL (≈ 0.497 µM) and the MIC (Escherchia coli TEM; read-out: MIC) was 0.013 µg/mL (≈ 0.0331 µM). The MIC (Klebsiella oxytoca 1082E; read-out: MIC) was < 0.002 µg/mL, the MIC (Klebsiella oxytoca 1522E; read-out: MIC) was 0.025 µg/mL (≈ 0.0637 µM) and the MIC ([2]; read-out: MIC) was 0.781 µg/mL (≈ 1.99 µM). For the same compound, the MIC [3, 18] was 0.195 µg/mL (≈ 0.497 µM), the MIC ([4]; read-out: MIC) was 0.781 µg/mL (≈ 1.99 µM) and the MIC ([5]; read-out: MIC) was 0.781 µg/mL (≈ 1.99 µM). The MIC (Salmonella typhymurium; read-out: MIC) was 0.007 µg/mL (≈ 0.0178 µM), the MIC ([6]; Staphylococcus aureus 285, 10^7 CFU/ml, 37° C., 18 hours, read-out: MIC) was 0.049 µg/mL (≈ 0.125 µM) and the MIC ([7]; read-out: MIC) was 0.049 µg/mL (≈ 0.125 µM). The MIC [8, 19] was 0.098 µg/mL (≈ 0.25 µM), the MIC [9, 20] was 0.391 µg/mL (≈ 0.996 µM) and the MIC [10, 21] was 0.391 µg/mL (≈ 0.996 µM). The MIC ([11]; A77, Streptococcus pyogenes A 77, 10^7 CFU/ml, 37° C., 18 hours, read-out: MIC) was 0.195 µg/mL (≈ 0.497 µM), the “IC100, Topo II” value [12] was 500 µg/mL and the “IC100, Gyrase” value (gyrase of E. coli) was 1.0 µg/mL.
For COc1c(N2CCC(N)(c3ccncc3)C2)c(F)cc2c(=O)c(C(=O)O)cn(C3CC3)c12 (stereo not shown) [Compound 11, 1-cyclopropyl-6-fluoro-8-methoxy-7-[{3-amino-3-(pyridin-4-yl)pyrrolidin}-1-yl]-4-oxo-1,4-dihydroquinolin-3-carboxylic acid], the MIC [1] was 0.002 µg/mL (≈ 0.00456 µM), the MIC (Enterobacter cloacae P99) was 0.004 µg/mL (≈ 0.00912 µM) and the MIC (Escherchia coli 078) was <0.002 µg/mL. For the same compound, the MIC (Escherchia coli 1507E) was 0.013 µg/mL (≈ 0.0296 µM), the MIC (Escherchia coli DC0; [13]) was 0.049 µg/mL (≈ 0.112 µM) and the MIC (Escherchia coli DC2; [14]) was 0.013 µg/mL (≈ 0.0296 µM). It also gave an MIC (Escherchia coli TEM) of 0.007 µg/mL (≈ 0.016 µM), an MIC (Klebsiella oxytoca 1082E) of 0.002 µg/mL (≈ 0.00456 µM) and an MIC (Klebsiella oxytoca 1522E) of 0.013 µg/mL (≈ 0.0296 µM). It also gave an MIC [2] of 0.195 µg/mL (≈ 0.445 µM), an MIC [3, 15] of 0.098 µg/mL (≈ 0.224 µM) and an MIC [4] of 0.195 µg/mL (≈ 0.445 µM). For the same compound, the MIC [5] was 0.195 µg/mL (≈ 0.445 µM), the MIC (Salmonella typhymurium) was 0.007 µg/mL (≈ 0.016 µM) and the MIC [6, 16] was 0.013 µg/mL (≈ 0.0296 µM). The MIC [7] was 0.007 µg/mL (≈ 0.016 µM), the MIC ([8]; 10^7 CFU/ml) was 0.013 µg/mL (≈ 0.0296 µM) and the MIC [9] was 0.025 µg/mL (≈ 0.057 µM). For the same compound, the MIC ([10]; 10^7 CFU/ml) was 0.025 µg/mL (≈ 0.057 µM), the MIC [11, 17] was 0.013 µg/mL (≈ 0.0296 µM) and the “IC100, Topo II” value [12] was 1,000 μg/ml. For the same compound, the “IC100, Gyrase” value (gyrase of E. coli) was 0.4 µg/mL.
